One assay concerns the target SARS-CoV-2 3CLpro (Severe acute respiratory syndrome coronavirus 2, UniProt P0DTD1). As to the kind of experiment: biochemical.
In a further assay the target is SARS-CoV 3CLpro (Severe acute respiratory syndrome coronavirus, UniProt P0C6X7). As to the kind of experiment: biochemical.
A further assay has as its target MERS-CoV 3CLpro (Middle East respiratory syndrome-related coronavirus, UniProt K9N7C7). As to the kind of experiment: biochemical.
Another assay addresses HCoV-229E 3CLpro (Human coronavirus 229E, UniProt P0C6X1). The experiment in a line: HCoV-229E 3CLpro inhibition assay (FRET). In kind it is biochemical.

Chain of MERS-CoV 3CLpro (K9N7C7 3248-3553): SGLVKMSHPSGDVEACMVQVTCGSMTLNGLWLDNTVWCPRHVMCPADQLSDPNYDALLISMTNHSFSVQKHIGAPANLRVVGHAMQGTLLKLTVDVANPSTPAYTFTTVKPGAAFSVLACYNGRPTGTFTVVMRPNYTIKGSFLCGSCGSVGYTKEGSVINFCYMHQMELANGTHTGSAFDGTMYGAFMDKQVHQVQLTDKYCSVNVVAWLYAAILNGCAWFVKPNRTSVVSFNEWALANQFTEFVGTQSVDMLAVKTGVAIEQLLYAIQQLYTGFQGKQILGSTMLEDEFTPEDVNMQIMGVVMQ
Chain of HCoV-229E 3CLpro (P0C6X1 2966-3267): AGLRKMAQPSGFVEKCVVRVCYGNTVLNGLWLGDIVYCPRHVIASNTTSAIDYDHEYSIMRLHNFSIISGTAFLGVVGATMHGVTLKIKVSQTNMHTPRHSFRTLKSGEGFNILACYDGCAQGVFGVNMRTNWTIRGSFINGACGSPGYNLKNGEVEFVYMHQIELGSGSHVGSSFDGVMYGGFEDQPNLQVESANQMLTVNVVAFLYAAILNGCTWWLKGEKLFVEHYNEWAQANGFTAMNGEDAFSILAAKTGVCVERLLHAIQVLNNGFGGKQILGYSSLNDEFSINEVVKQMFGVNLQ

As for `CC[C@H](C)[C@H](NC(=O)C(C)(C)C)C(=O)N1C[C@H]2[C@@H]([C@H]1C(=O)NN(C[C@@H]1CCNC1=O)C(=O)[C@H](F)Cl)C2(C)C` [Example 52, N-[(1S,2S)-1-[(1R,2S,5S)-2-[[[(2R)-2-chloro-2-fluoro-acetyl]-[[(3S)-2-oxopyrrolidin-3-yl]methyl]amino]carbamoyl]-6,6-dimethyl-3-azabicyclo[3.1.0]hexane-3-carbonyl]-2-methyl-butyl]-2,2-dimethyl-propanamide], the IC50 (commonly the concentration needed to halve the response being measured) against SARS-CoV-2 3CLpro is 10 nM; against SARS-CoV 3CLpro, 15 nM; against MERS-CoV 3CLpro, 57 nM; against HCoV-229E 3CLpro it was 22 nM.

As to `CC[C@H](C)[C@H](NC(=O)C(C)C)C(=O)N1C[C@H]2[C@@H]([C@H]1C(=O)NN(C[C@@H]1CCNC1=O)C(=O)[C@H](F)Cl)C2(C)C` [Example 54, N-[(1S,2S)-1-[(1R,2S,5S)-2-[[[(2R)-2-chloro-2-fluoro-acetyl]-[[(3S)-2-oxopyrrolidin-3-yl]methyl]amino]carbamoyl]-6,6-dimethyl-3-azabicyclo[3.1.0]hexane-3-carbonyl]-2-methyl-butyl]-2-methyl-propanamide], the IC50 against SARS-CoV-2 3CLpro came out at 9 nM; against SARS-CoV 3CLpro it was 12 nM; against MERS-CoV 3CLpro, 56 nM; at HCoV-229E 3CLpro, 24 nM.

Take `CC[C@H](C)[C@H](NC(=O)C(C)(F)F)C(=O)N1C[C@H]2[C@@H]([C@H]1C(=O)NN(C[C@@H]1CCNC1=O)C(=O)[C@H](F)Cl)C2(C)C` [Example 55, N-[(1S,2S)-1-[(1R,2S,5S)-2-[[[(2R)-2-chloro-2-fluoro-acetyl]-[[(3S)-2-oxopyrrolidin-3-yl]methyl]amino]carbamoyl]-6,6-dimethyl-3-azabicyclo[3.1.0]hexane-3-carbonyl]-2-methyl-butyl]-2,2-difluoro-propanamide]: the IC50 worked out at 8 nM at SARS-CoV-2 3CLpro, 14 nM against SARS-CoV 3CLpro, 56 nM at MERS-CoV 3CLpro and 21 nM against HCoV-229E 3CLpro.

Regarding `CC[C@H](C)[C@H](NC(=O)C1CC1)C(=O)N1C[C@H]2[C@@H]([C@H]1C(=O)NN(C[C@@H]1CCNC1=O)C(=O)[C@H](F)Cl)C2(C)C` [Example 57, N-[(1S,2S)-1-[(1R,2S,5S)-2-[[[(2R)-2-chloro-2-fluoro-acetyl]-[[(3S)-2-oxopyrrolidin-3-yl]methyl]amino]carbamoyl]-6,6-dimethyl-3-azabicyclo[3.1.0]hexane-3-carbonyl]-2-methyl-butyl]cyclopropanecarboxamide], the IC50 on SARS-CoV-2 3CLpro came to 11 nM; against SARS-CoV 3CLpro, 13 nM; on MERS-CoV 3CLpro, 62 nM; against HCoV-229E 3CLpro, 20 nM.

For the compound `CC[C@H](C)[C@H](NC(=O)C1CC(F)(F)C1)C(=O)N1C[C@H]2[C@@H]([C@H]1C(=O)NN(C[C@@H]1CCNC1=O)C(=O)[C@H](F)Cl)C2(C)C` [Example 58, N-[(1S,2S)-1-[(1R,2S,5S)-2-[[[(2R)-2-chloro-2-fluoro-acetyl]-[[(3S)-2-oxopyrrolidin-3-yl]methyl]amino]carbamoyl]-6,6-dimethyl-3-azabicyclo[3.1.0]hexane-3-carbonyl]-2-methyl-butyl]-3,3-difluoro-cyclobutanecarboxamide], the IC50 on SARS-CoV-2 3CLpro came to 11 nM; at SARS-CoV 3CLpro it was 15 nM; on MERS-CoV 3CLpro, 73 nM; at HCoV-229E 3CLpro it was 26 nM.

`CC[C@H](C)[C@H](NC(=O)C1(F)CC1)C(=O)N1C[C@H]2[C@@H]([C@H]1C(=O)NN(C[C@@H]1CCNC1=O)C(=O)[C@H](F)Cl)C2(C)C` [Example 59, N-[(1S,2S)-1-[(1R,2S,5S)-2-[[[(2R)-2-chloro-2-fluoro-acetyl]-[[(3S)-2-oxopyrrolidin-3-yl]methyl]amino]carbamoyl]-6,6-dimethyl-3-azabicyclo[3.1.0]hexane-3-carbonyl]-2-methyl-butyl]-1-fluoro-cyclopropanecarboxamide]: the IC50 against SARS-CoV-2 3CLpro is 7 nM; against SARS-CoV 3CLpro, 17 nM; against MERS-CoV 3CLpro, 62 nM; against HCoV-229E 3CLpro, 21 nM.

For `CC[C@H](C)[C@H](NC(=O)C1(C)CC1)C(=O)N1C[C@H]2[C@@H]([C@H]1C(=O)NN(C[C@@H]1CCNC1=O)C(=O)[C@H](F)Cl)C2(C)C` [Example 60, N-[(1S,2S)-1-[(1R,2S,5S)-2-[[[(2R)-2-chloro-2-fluoro-acetyl]-[[(3S)-2-oxopyrrolidin-3-yl]methyl]amino]carbamoyl]-6,6-dimethyl-3-azabicyclo[3.1.0]hexane-3-carbonyl]-2-methyl-butyl]-1-methyl-cyclopropanecarboxamide], the IC50 was determined as 10 nM against SARS-CoV-2 3CLpro, 9 nM at SARS-CoV 3CLpro, 47 nM against MERS-CoV 3CLpro and 19 nM on HCoV-229E 3CLpro.

In the case of `CC[C@H](C)[C@H](NC(=O)C(Cl)Cl)C(=O)N1C[C@H]2[C@@H]([C@H]1C(=O)NN(C[C@@H]1CCNC1=O)C(=O)[C@H](F)Cl)C2(C)C` [Example 61, 2,2-dichloro-N-[(1S,2S)-1-[(1R,2S,5S)-2-[[[(2R)-2-chloro-2-fluoro-acetyl]-[[(3S)-2-oxopyrrolidin-3-yl]methyl]amino]carbamoyl]-6,6-dimethyl-3-azabicyclo[3.1.0]hexane-3-carbonyl]-2-methyl-butyl]acetamide], the IC50 against SARS-CoV-2 3CLpro is 8 nM; against SARS-CoV 3CLpro it was 11 nM; against MERS-CoV 3CLpro, 121 nM; against HCoV-229E 3CLpro, 30 nM.

Turning to `CC[C@H](C)[C@H](NC(=O)C(F)(F)C(F)(F)F)C(=O)N1C[C@H]2[C@@H]([C@H]1C(=O)NN(C[C@@H]1CCNC1=O)C(=O)[C@H](F)Cl)C2(C)C` [Example 62, N-[(1S,2S)-1-[(1R,2S,5S)-2-[[[(2R)-2-chloro-2-fluoro-acetyl]-[[(3S)-2-oxopyrrolidin-3-yl]methyl]amino]carbamoyl]-6,6-dimethyl-3-azabicyclo[3.1.0]hexane-3-carbonyl]-2-methyl-butyl]-2,2,3,3,3-pentafluoro-propanamide], the IC50 against SARS-CoV-2 3CLpro worked out at 8 nM; on SARS-CoV 3CLpro, 10 nM; at MERS-CoV 3CLpro it was 43 nM; against HCoV-229E 3CLpro, 17 nM.

For `CC[C@H](C)[C@H](NC(=O)C(F)(F)F)C(=O)N1C[C@H]2[C@@H]([C@H]1C(=O)NN(C[C@@H]1CCNC1=O)C(=O)[C@H](F)Cl)C2(C)C` [Example 63, N-[(1S,2S)-1-[(1R,2S,5S)-2-[[[(2R)-2-chloro-2-fluoro-acetyl]-[[(3S)-2-oxopyrrolidin-3-yl]methyl]amino]carbamoyl]-6,6-dimethyl-3-azabicyclo[3.1.0]hexane-3-carbonyl]-2-methyl-butyl]-2,2,2-trifluoro-acetamide], the IC50 stood at 9 nM against SARS-CoV-2 3CLpro, 11 nM at SARS-CoV 3CLpro, 60 nM against MERS-CoV 3CLpro and 18 nM at HCoV-229E 3CLpro.

For `CC[C@@H](C)[C@H](NC(=O)C(F)(F)F)C(=O)N1C[C@H]2[C@@H]([C@H]1C(=O)NN(C[C@@H]1CCNC1=O)C(=O)[C@H](F)Cl)C2(C)C` [Example 64, N-[(1S,2R)-1-[(1R,2S,5S)-2-[[[(2R)-2-chloro-2-fluoro-acetyl]-[[(3S)-2-oxopyrrolidin-3-yl]methyl]amino]carbamoyl]-6,6-dimethyl-3-azabicyclo[3.1.0]hexane-3-carbonyl]-2-methyl-butyl]-2,2,2-trifluoro-acetamide], the IC50 was determined as 10 nM against SARS-CoV-2 3CLpro, 12 nM at SARS-CoV 3CLpro, 71 nM at MERS-CoV 3CLpro and 20 nM at HCoV-229E 3CLpro.

For `CC(C)(C)C[C@H](NC(=O)C(F)(F)F)C(=O)N1C[C@H]2[C@@H]([C@H]1C(=O)NN(C[C@@H]1CCNC1=O)C(=O)[C@H](F)Cl)C2(C)C` [Example 66, N-[(1S)-1-[(1R,2S,5S)-2-[[[(2R)-2-chloro-2-fluoro-acetyl]-[[(3S)-2-oxopyrrolidin-3-yl]methyl]amino]carbamoyl]-6,6-dimethyl-3-azabicyclo[3.1.0]hexane-3-carbonyl]-3,3-dimethyl-butyl]-2,2,2-trifluoro-acetamide], the IC50 came to 10 nM against SARS-CoV-2 3CLpro, 22 nM against SARS-CoV 3CLpro, 141 nM on MERS-CoV 3CLpro and 35 nM against HCoV-229E 3CLpro.

For the compound `CC1(C)[C@@H]2[C@@H](C(=O)NN(C[C@@H]3CCNC3=O)C(=O)[C@H](F)Cl)N(C(=O)[C@H](Cc3ccncc3)NC(=O)C(F)(F)F)C[C@@H]21` [Example 67, N-[(1S)-2-[(1R,2S,5S)-2-[[[(2R)-2-chloro-2-fluoro-acetyl]-[[(3S)-2-oxopyrrolidin-3-yl]methyl]amino]carbamoyl]-6,6-dimethyl-3-azabicyclo[3.1.0]hexan-3-yl]-2-oxo-1-(4-pyridylmethyl)ethyl]-2,2,2-trifluoro-acetamide], the IC50 was 10 nM at SARS-CoV-2 3CLpro, 14 nM against SARS-CoV 3CLpro, 84 nM against MERS-CoV 3CLpro and 28 nM on HCoV-229E 3CLpro.

Turning to `CC1([C@H](NC(=O)C(F)(F)F)C(=O)N2C[C@H]3[C@@H]([C@H]2C(=O)NN(C[C@@H]2CCNC2=O)C(=O)[C@H](F)Cl)C3(C)C)CC1` [Example 68, N-[(1S)-2-[(1R,2S,5S)-2-[[[(2R)-2-chloro-2-fluoro-acetyl]-[[(3S)-2-oxopyrrolidin-3-yl]methyl]amino]carbamoyl]-6,6-dimethyl-3-azabicyclo[3.1.0]hexan-3-yl]-1-(1-methylcyclopropyl)-2-oxo-ethyl]-2,2,2-trifluoro-acetamide], the IC50 against SARS-CoV-2 3CLpro turned out to be 18 nM; against SARS-CoV 3CLpro, 14 nM; against MERS-CoV 3CLpro, 81 nM; at HCoV-229E 3CLpro, 23 nM.

With `CSCC[C@H](NC(=O)C(F)(F)F)C(=O)N1C[C@H]2[C@@H]([C@H]1C(=O)NN(C[C@@H]1CCNC1=O)C(=O)[C@H](F)Cl)C2(C)C` [Example 69, N-[(1S)-1-[(1R,2S,5S)-2-[[[(2R)-2-chloro-2-fluoro-acetyl]-[[(3S)-2-oxopyrrolidin-3-yl]methyl]amino]carbamoyl]-6,6-dimethyl-3-azabicyclo[3.1.0]hexane-3-carbonyl]-3-methylsulfanyl-propyl]-2,2,2-trifluoro-acetamide], the IC50 against SARS-CoV-2 3CLpro came out at 11 nM; on SARS-CoV 3CLpro, 28 nM; against MERS-CoV 3CLpro, 249 nM; at HCoV-229E 3CLpro, 53 nM.

The record behind these values is patent US20250059171A1 (Hoffmann-La Roche Inc., priority 2021, published 2025).
